In patent publication US8916711B2, “Imidazothiazole-chalcone derivatives as potential anticancer agents and process for the preparation thereof” (Council of Scientific and Industrial Research, priority 2009, dated 2014):
Where two headings read alike, the source gives them in different places.

What was measured:
Type in all cases: cell-based
[1] = tested on: Ovarian cancer cell lines; experiment: NCI in vitro cytotoxicity, whole panel; conditions: Homo sapiens; for CC50: read-out: Log10 LC50 (converted)
HOP-62 = experiment: NCI in vitro cytotoxicity (SRB, 48 h), Non-small cell lung panel; conditions: Homo sapiens; HOP-62, Non-small cell lung; 48 h exposure
Leukemia cell lines = experiment: NCI in vitro cytotoxicity, whole panel; conditions: Homo sapiens; for CC50: read-out: Log10 LC50 (converted)
OVCAR-8 = experiment: NCI in vitro cytotoxicity (SRB, 48 h), Ovarian panel; conditions: Homo sapiens; OVCAR-8, Ovarian; 48 h exposure
SK-OV-3 = experiment: as above; conditions: Homo sapiens; SK-OV-3, Ovarian; 48 h exposure
SNB-19 = experiment: NCI in vitro cytotoxicity (SRB, 48 h), CNS panel; conditions: Homo sapiens; SNB-19, CNS; 48 h exposure
MOLT-4 = experiment: NCI in vitro cytotoxicity (SRB, 48 h), Leukemia panel; conditions: Homo sapiens; MOLT-4, Leukemia; 48 h exposure
BT-549 = experiment: NCI in vitro cytotoxicity (SRB, 48 h), Breast panel; conditions: Homo sapiens; BT-549, Breast; 48 h exposure
[2] = tested on: sixty human tumour cell lines; experiment: NCI in vitro cytotoxicity, all panels; conditions: for CC50: read-out: Log10 LC50 mean graph midpoint (MG_MID) (converted)
SNB-75 = experiment: NCI in vitro cytotoxicity (SRB, 48 h), CNS panel; conditions: Homo sapiens; SNB-75, CNS; 48 h exposure
SR = experiment: NCI in vitro cytotoxicity (SRB, 48 h), Leukemia panel; conditions: Homo sapiens
Description: (§1) The imidazothiazole-chalcone hybrids 7a, 7e, 7f, 8f and 19e have been tested against sixty human tumour cell lines derived from nine cancer types (leukemia, non-small cell lung cancer, colon cancer, CNS cancer, melanoma, ovarian cancer, renal cancer, prostate cancer and breast cancer) as per NCI protocol. For each compound, dose response curves for individual cell lines have been measured at a minimum of five concentrations at 10 fold dilutions. A protocol of 48 h continuous drug exposure has been used, and a sulforhodamine B (SRB) protein assay was used to estimate cell viability or growth. The concentration for 50% cell growth inhibition (GI50), total cell growth inhibition (TGI, 0% growth) and 50% cell death (LC50, […]) compared with the control has been calculated (Table-1).

HL-60(TB) = experiment: as above; conditions: Homo sapiens, 48 h exposure
Description: as §1

SF-539 = experiment: NCI in vitro cytotoxicity (SRB, 48 h), CNS panel; conditions: Homo sapiens; SF-539, CNS; 48 h exposure
NCI-H23 = experiment: NCI in vitro cytotoxicity (SRB, 48 h), Non-small cell lung panel; conditions: Homo sapiens, 48 h exposure
[3] = tested on: Non-small-cell lung cancer cell lines; experiment: NCI in vitro cytotoxicity, whole panel; conditions: Homo sapiens; for CC50: read-out: Log10 LC50 (converted)
K-562 = experiment: NCI in vitro cytotoxicity (SRB, 48 h), Leukemia panel; conditions: Homo sapiens, K562; K-562, Leukemia; 48 h exposure
Melanoma cell lines = experiment: NCI in vitro cytotoxicity, whole panel; conditions: Homo sapiens; for CC50: read-out: Log10 LC50 (converted)
MCF7 = experiment: NCI in vitro cytotoxicity (SRB, 48 h), Breast panel; conditions: Homo sapiens; for IC50: MCF7, MCF-7, Table 4, read-out: Comparative efficacy; for GI50: MCF7, Breast, 48 h exposure
Description: as §1

MDA-MB-231/ATCC = experiment: as above; conditions: Homo sapiens; for GI50: Breast, 48 h exposure; for IC50: Table 4, read-out: Comparative efficacy
Description: as §1

CCRF-CEM = experiment: NCI in vitro cytotoxicity (SRB, 48 h), Leukemia panel; conditions: Homo sapiens, 48 h exposure
NCI-H322M = experiment: NCI in vitro cytotoxicity (SRB, 48 h), Non-small cell lung panel; conditions: Homo sapiens, 48 h exposure
HOP-92 = experiment: as above; conditions: Homo sapiens; HOP-92, Non-small cell lung; 48 h exposure
RPMI-8226 = experiment: NCI in vitro cytotoxicity (SRB, 48 h), Leukemia panel; conditions: Homo sapiens; RPMI-8226, Leukemia; 48 h exposure
SK-MEL-2 = experiment: NCI in vitro cytotoxicity (SRB, 48 h), Melanoma panel; conditions: Homo sapiens; SK-MEL-2, Melanoma; 48 h exposure
A498 = experiment: NCI in vitro cytotoxicity (SRB, 48 h), Renal panel; conditions: Homo sapiens, 48 h exposure
HCC-2998 = experiment: NCI in vitro cytotoxicity (SRB, 48 h), Colon panel; conditions: Homo sapiens
Renal cancer cell lines = experiment: NCI in vitro cytotoxicity, whole panel; conditions: Homo sapiens; for CC50: read-out: Log10 LC50 (converted)
Breast cancer cell lines = experiment: NCI in vitro cytotoxicity, whole panel; conditions: Homo sapiens; for GI50 / CC50: Breast, average of six to eight cell lines; for GI50: read-out: Log10 GI50 (converted); for CC50: read-out: Log10 LC50 (converted); for IC50: exposure period of at least 48 hrs, read-out: IC50, range over breast cell lines
T-47D = experiment: NCI in vitro cytotoxicity (SRB, 48 h), Breast panel; conditions: Homo sapiens, T47D, 48 h exposure
NCI-H460 = experiment: NCI in vitro cytotoxicity (SRB, 48 h), Non-small cell lung panel; conditions: Homo sapiens, 48 h exposure
[4] = Ovarian, average of six to eight cell lines, read-out: Log10 GI50 (converted)
[5] = Ovarian, average of six to eight cell lines
[6] = exposure period of at least 48 hrs, read-out: GI50, range over ovarian cell lines
[7] = Leukemia, average of six to eight cell lines, read-out: Log10 GI50 (converted)
[8] = Leukemia, average of six to eight cell lines
[9] = exposure period of at least 48 hrs, read-out: GI50, range over leukemia cell lines
[10] = Homo sapiens, sixty cell lines, nine panels, read-out: GI50 against sixty cell lines in nine cell panels
[11] = human tumour cell lines, read-out: Log10 GI50 mean graph midpoint (MG_MID) (converted)
[12] = Non-small-cell lung, average of six to eight cell lines, read-out: Log10 GI50 (converted)
[13] = Non-small-cell lung, average of six to eight cell lines
[14] = exposure period of at least 48 hrs, read-out: GI50, range over lung cell lines
[15] = Melanoma, average of six to eight cell lines, read-out: Log10 GI50 (converted)
[16] = Melanoma, average of six to eight cell lines
[17] = exposure period of at least 48 hrs, read-out: GI50, range over melanoma cell lines
[18] = Renal, average of six to eight cell lines, read-out: Log10 GI50 (converted)
[19] = Renal, average of six to eight cell lines
[20] = exposure period of at least 48 hrs, read-out: GI50, range over renal cell lines

SMILES: COc1cc(C(=O)/C=C/c2c(C(F)(F)F)nc3sccn23)cc(OC)c1OC [Compound 7f, (E)-3-(6-(trifluoromethyl)imidazo[2,1-b]thiazol-5-yl)-1-(3,4,5-trimethoxyphenyl)prop-2-en-1-one]
- GI50 [1, 4]: 2690 nM
- CC50 [1, 5]: 57500 nM
- GI50 [1, 6]: 1860 to 3080 nM
- GI50 (HOP-62): 1930 nM
- GI50 (Leukemia cell lines; [7]): 1290 nM
- CC50 (Leukemia cell lines; [8]): ≥ 100000 nM
- GI50 (Leukemia cell lines; [9]): 540 to 1920 nM
- GI50 (OVCAR-8): 3080 nM
- GI50 (SK-OV-3): 2870 nM
- GI50 (SNB-19): 2670 nM
- GI50 (MOLT-4): 1920 nM
- GI50 (BT-549): 2260 nM
- GI50 [2, 10]: < 9000 nM
- Log10 TGI mean graph midpoint (MG_MID) ([2]; human tumour cell lines): −5.28
- in vitro cytotoxicity, in words ([2]; human tumour cell lines): significant cytotoxicity
- GI50 [2, 11]: 1910 nM
- CC50 ([2]; human tumour cell lines): 19100 nM
- GI50 (SNB-75): 1870 nM
- GI50 (SR): 540 nM
- GI50 (SR; 48 h exposure): 540 nM
- GI50 (HL-60(TB)): 1830 nM
- GI50 (SF-539): 1550 nM
- GI50 (NCI-H23): 1720 nM
- GI50 [3, 12]: 2450 nM
- CC50 [3, 13]: 26900 nM
- GI50 [3, 14]: 1650 to 7000 nM
- GI50 (K-562): 1740 nM
- GI50 (Melanoma cell lines; [15]): 1700 nM
- CC50 (Melanoma cell lines; [16]): 9330 nM
- GI50 (Melanoma cell lines; [17]): 1360 to 2260 nM
- IC50 (MCF7): 1250 nM
- GI50 (MCF7): 1250 nM
- GI50 (MDA-MB-231/ATCC): 2920 nM
- IC50 (MDA-MB-231/ATCC): 2920 nM
- GI50 (CCRF-CEM): 1240 nM
- GI50 (NCI-H322M): 1960 nM
- GI50 (HOP-92): 7000 nM
- GI50 (RPMI-8226): 1080 nM
- GI50 (SK-MEL-2): 2260 nM
- GI50 (A498): 1890 nM
- GI50 (HCC-2998; HCC-2998, Colon, 48 h exposure): 1710 nM
- GI50 (HCC-2998; HCC-2998, colon): 1710 nM
- GI50 (Renal cancer cell lines; [18]): 1860 nM
- CC50 (Renal cancer cell lines; [19]): 10500 nM
- GI50 (Renal cancer cell lines; [20]): 1560 to 2300 nM
- GI50 (Breast cancer cell lines): 2090 nM
- CC50 (Breast cancer cell lines): 24500 nM
- IC50 (Breast cancer cell lines): 1250 to 2920 nM
- GI50 (T-47D): 2120 nM
- GI50 (NCI-H460): 1650 nM

SMILES: COc1ccc(C(=O)/C=C/c2c(C(F)(F)F)nc3sccn23)cc1OC [Compound 8f, (E)-1-(3,4-dimethoxyphenyl)-3-(6-(trifluoromethyl)imidazo[2,1-b]thiazol-5-yl) prop-2-en-1-one]
- GI50 [1, 4]: 2950 nM
- CC50 [1, 5]: 100000 nM
- GI50 [1, 6]: 1880 to 4180 nM
- GI50 (HOP-62): 6000 nM
- GI50 (Leukemia cell lines; [7]): 1480 nM
- CC50 (Leukemia cell lines; [8]): ≥ 100000 nM
- GI50 (Leukemia cell lines; [9]): 490 to 2330 nM
- GI50 (OVCAR-8): 2400 nM
- GI50 (SK-OV-3): 3410 nM
- GI50 (SNB-19): 4250 nM
- GI50 (MOLT-4): 2220 nM
- GI50 (BT-549): 3250 nM
- GI50 [2, 10]: < 9000 nM
- Log10 TGI mean graph midpoint (MG_MID) ([2]; human tumour cell lines): −4.22
- in vitro cytotoxicity, in words ([2]; human tumour cell lines): significant cytotoxicity
- GI50 [2, 11]: 3090 nM
- CC50 ([2]; human tumour cell lines): 100000 nM
- GI50 (SNB-75): 6870 nM
- GI50 (SR): 490 nM
- GI50 (SR; 48 h exposure): 490 nM
- GI50 (HL-60(TB)): 1000 nM
- GI50 (SF-539): 2360 nM
- GI50 (NCI-H23): 2780 nM
- GI50 [3, 12]: 3980 nM
- CC50 [3, 13]: ≥ 100000 nM
- GI50 [3, 14]: 1940 to 6950 nM
- GI50 (K-562): 2250 nM
- GI50 (Melanoma cell lines; [15]): 3630 nM
- CC50 (Melanoma cell lines; [16]): ≥ 100000 nM
- GI50 (Melanoma cell lines; [17]): 600 to 8480 nM
- IC50 (MCF7): 760 nM
- GI50 (MCF7): 760 nM
- GI50 (MDA-MB-231/ATCC): 5910 nM
- IC50 (MDA-MB-231/ATCC): 760 nM
- GI50 (CCRF-CEM): 2330 nM
- GI50 (NCI-H322M): 3170 nM
- GI50 (HOP-92): 5800 nM
- GI50 (RPMI-8226): 1620 nM
- GI50 (SK-MEL-2): 4080 nM
- GI50 (A498): 7580 nM
- GI50 (HCC-2998; HCC-2998, Colon, 48 h exposure): 5070 nM
- GI50 (Renal cancer cell lines; [18]): 4900 nM
- CC50 (Renal cancer cell lines; [19]): ≥ 100000 nM
- GI50 (Renal cancer cell lines; [20]): 2460 to 8760 nM
- GI50 (Breast cancer cell lines): 2950 nM
- CC50 (Breast cancer cell lines): ≥ 100000 nM
- IC50 (Breast cancer cell lines): 760 to 6180 nM
- GI50 (T-47D): 2900 nM
- GI50 (NCI-H460): 1940 nM
